According to patent US20220372013A2, “PIPERIDINE-2,6-DIONE DERIVATIVES AND CROHN'S DISEASE TREATING” (Tianjin Hemay Pharmaceutical Sci-Tech Co., Ltd, priority 2016, published 2022):
Marks after values point to notes of the source that are not given here.

What was measured:
[1] = tested on: DNBS-Induced Inflammatory Bowel Disease Models in Rats; experiment: Biological Example 1: DNBS-induced inflammatory bowel disease models in rats; type: in vivo, Wistar rats
Procedure: Wistar rats, male, body weight of 100-120 g.
90 male Wistar rats were fasted for 40 hours. A 5% glucose injection was administered subcutaneously during fasting. 60 rats with normal conditions and moderate body weight were selected from the fasting rats. The animals were randomly divided into 6 groups according to the body weight: normal control group, model control group, sulfasalazine group (300 mg/Kg), and the compound in Example 27 groups consisting of 5, 15 and 30 mg/Kg dose groups. There were 10 rats in each group. The animals were anesthetized with ether. A specially made gavage device (made by a rat gavage device having the diameter of 2 mm, which was nested on a mouse gavage device having the diameter of 1 mm) was slowly inserted into the enteric cavity at 8 cm from the anus. The model control group, the sulfasalazine group and the compound in Example 27 groups were administered with 0.5 mL of 50 mg/mL DNBS in 30% ethanol solution. The normal control group was administered with 0.5 mL of 30% ethanol solution. The animals were inverted in anesthesia for 15 minutes after the gavage device was removed. The day when the model was prepared was the first day of the experiment. After 4 hours of DNBS induction, the corresponding drug or the corresponding volume of 1% CMC-Na was administered once per day. The body weights were recorded and the stool characteristics were scored. On the sixth day of the experiment colon tissues were taken from the animals to observe the results of each index.
The compound in Example 27 and sulfasalazine: Preparation Method: Suspended with 1% CMC-Na, and prepared when it was needed.
Animals were euthanized on the sixth day of the experiment to observe the results of each index. After the animals were sacrificed, colons were obtained. The adhesion degree of colon was observed and the length of the colon was measured. The ulcer area was calculated after removing the contents in the colon and the weight of the colon tissue was weighed. The colon tissue was longitudinally divided into two parts. One part of the colon tissue was fixed in 10% formalin solution for later use. The other part of the colon tissue was put into the liquid nitrogen to quickly frozen, and then was reserved at −80° C. for the detection of MPO.
Calculation method for ulcer area: length of ulcer point (cm)×width of ulcer point (cm).
The frozen tissue was ground into powder in liquid nitrogen. An appropriate amount of the powder was weighed and was added into 50 mM potassium phosphate solution (containing 0.5% cetyltrimethylammonium bromide) to give a 25 mg/mL solution. The resultant solution was homogenized by an electric homogenizer. 1 mL of suspension was centrifuged to give a supernatant. 7 μL of the supernatant was added into a 96-well plate and 200 μL of o-dianisidine mixture (containing 0.167 mg/mL o-dianisidine and 0.0006% H2O2 potassium phosphate buffer). OD values of the resultant solution at 0, 30, 60, and 90 s were detected at 450 nm of the microplate reader.
Test for homogeneity of variance was performed with Spss13.0. Where variance of data was homogeneous (P>0.05), one-way ANOVA LSD test was performed. Where the analysis of variance was significant (P<0.05), then Dunnett's multiple comparison (parameter method) or Kruskal-Wallis non-parametric test was performed. Where the results of Kruskal-Wallis non-parametric test were significant (P<0.05), the Mann-Whitney U test was performed for pairwise comparison.

[2] = tested on: DNBS-Induced Inflammatory Bowel Disease Models in Rats; experiment: Biological Example 2: DNBS-induced inflammatory bowel disease models in rats; type: in vivo, Wistar rats
Procedure: 110 male Wistar rats were fasted for 40 hours. A 5% glucose injection (10 mL/Kg) was administered subcutaneously during fasting. 48 rats with normal conditions and moderate body weight were selected from the fasting rats. The animals were randomly divided into […] according to the body weight: normal control group, model control group, sulfasalazine group (300 mg/Kg), dexamethasone group (0.1 mg/Kg), the compound in Example 26 group (30 mg/kg) and the compound in Example 27 group (30 mg/kg), with 8 rats in each group. The animals were anesthetized with isoflurane. A specially made gavage device (made by a rat gavage device having the diameter of 2 mm, which was nested on a mouse gavage device having the diameter of 1 mm) was slowly inserted into the enteric cavity at 8 cm from the anus. The model control group, the compound in Example 26 group and the compound in Example 27 group were administered with 0.5 mL of 50 mg/mL DNBS in 30% ethanol solution. The normal control group was administered with 0.5 mL of 30% ethanol solution. The animals were inverted in anesthesia for 15 minutes after the gavage device was removed. The day when the model was prepared was the first day of the experiment. After 4 hours of DNBS induction, the corresponding drug or the corresponding volume of 1% CMC-Na was administered once per day. On the sixth day of the experiment, the animals were euthanized to observe the results of each index so as to score the colon adhesion degree, measure the length of colon and ulcer area, weigh colon and calculate the colon weight to length ratio.
The compound in Example 26 and Example 27, sulfasalazine and dexamethasone: Preparation Method: Suspended with 1% CMC-Na, and prepared when it was needed.
Levene's Test for homogeneity of data was performed with Spss. Where the data were homogeneous (P>0.05), one-way ANOVA LSD test was performed. Where the analysis of variance was significant (P≤0.05), Dunnett's multiple comparison (parameter method) was performed. Where the results of Levene's Test were significant (P≤0.05), Kruskal-Wallis nonparametric test was performed. Where the results of Kruskal-Wallis nonparametric test were significant (P≤0.05), Mann-Whitney U test was performed for pairwise comparison.

[3] = tested on: Crohn's disease; conditions: C. Yang et, Aliment Pharmacol Ther 2015; cited from earlier work
[4] = 300 mg/Kg i.g. qd × 6, sixth day, Mean ± SD

SMILES | Adhesion Degree [1, 4] [Point] | Colon MPO Activity [1, 4] [U/mg] | Colon Weight [1, 4] [mg] | Colon weight to length ratio [1, 4] [mg/cm] | Ulcer Area [1, 4] [cm^2] | reduction of the ulcer area ([1]; 300 mg/Kg, vs model control group) [%] | Adhesion Degree [2, 4] [Points] | Colon Length [2, 4] [cm] | Colon Weight [2, 4] [mg] | Ulcer Area [2, 4] | growth rate of the body weight (in words) ([2]; fourth day of the experiment, compared with model control group, doses as in Table 7) | effectiveness in the treatment of Crohn's disease (in words) [3]
O=C(O)c1cc(/N=N/c2ccc(S(=O)(=O)Nc3ccccn3)cc2)ccc1O [Sulfasalazine, sulfasalazine, reference compound] | 0.2 ± 0.4 | 26.0 ± 14.8 | 1794.9 ± 242.3 | 140.6 ± 27.9 | 0.7 ± 0.6 | 60 | 0.8 ± 0.7 | 13.2 ± 2.5 | 1776.1 ± 280.7 | 1.6 ± 1.2# cm^2 | higher than that in the model control group | 
Nc1cccc2c1CN(C1CCC(=O)NC1=O)C2=O (stereo not shown) [lenalidomide] |  |  |  |  |  |  |  |  |  |  |  | not effective
O=C1CCC(N2C(=O)c3ccccc3C2=O)C(=O)N1 (stereo not shown) [thalidomide] |  |  |  |  |  |  |  |  |  |  |  | not effective
